Measured values as given in US20170001990A1 (Genentech, Inc., priority 2014, published 2017).

Molecular target: Human recombinant carboxy-terminal his-tagged LDHA (amino acids 2-332) (Homo sapiens, UniProt P00338)
Test: LDHA enzyme inhibition assay (NADH fluorescence)
Conditions: LDHA IC50 (μM), 1 nM LDHA, NADH and pyruvate, stereochemistry of tested sample given

In order of falling IC50:
1. O=C1CC(c2ccsc2)(c2cccc(Oc3ccccc3Br)n2)NC(=O)C1Sc1ccccc1Cl (single isomer, unassigned) [Example 116, 6-[6-(2-bromophenoxy)-2-pyridyl]-3-(2-chlorophenyl) sulfanyl-6-(3-thienyl) piperidine-2,4-dione]  0.376 µM
2. CC(C)c1cc(F)ccc1Oc1cccc([C@@]2(c3ccsc3)CC(=O)C(Sc3ccccc3Cl)C(=O)N2)n1 (stereo partly drawn) [Example 319, (6S)-3-(2-chlorophenyl) sulfanyl-6-[6-(4-fluoro-2-isopropyl-phenoxy)-2-pyridyl]-6-(3-thienyl) piperidine-2,4-dione]  0.197 µM
3. O=C1CC(c2ccsc2)(c2cccc(Cc3cc(F)cc(F)c3)n2)NC(=O)C1Sc1ccccc1Cl (single isomer, unassigned) [Example 146, 3-(2-chlorophenyl)sulfanly-6-[6-[(3,5-difluorophenyl)methyl]-2-pyridyl]-6-(3-thienyl)piperidine-2,4-dione]  0.189 µM
4. O=C1CC(c2ccsc2)(c2cccc(Oc3ccc(F)c(C(F)(F)F)c3)n2)NC(=O)C1Sc1ccccc1Cl (single isomer, unassigned) [Example 144, 3-(2-chlorophenyl)sulfanyl-6-[6-[4-fluoro-3-(trifluoromethyl)phenoxy]-2-pyridyl]-6-(3-thienyl) piperidine-2,4-dione]  0.143 µM
5. O=C1CC(c2ccsc2)(c2cccc(N3CCCc4cccc(O)c43)n2)NC(=O)C1Sc1ccccc1Cl (centres unmarked) [Example 105, 3-(2-chlorophenyl)sulfanyl-6-[6-(8-hydroxy-3,4-dihydro-2H-quinolin-1-yl)-2-pyridyl]-9-(3-thienyl)piperidine-2,4-dione]  0.125 µM
6. CC(C)Oc1nc(C2(c3ccsc3)CC(=O)C(Sc3ccccc3Cl)C(=O)N2)ccc1N1CCOCC1 (centres unmarked) [Example 73, 3-((2-chlorophenyl)thio)-6-(6-isopropoxy-5-morpholinopyridin-2-yl)-6-(thiophen-3-yl) piperidine-2,4-dione]  0.111 µM
7. CC(O)c1cccc(Nc2cccc(C3(c4ccsc4)CC(=O)C(Sc4ccccc4Cl)C(=O)N3)n2)c1 (centres unmarked) [Example 307, 3-((2-chlorophenyl)thio)-6-(6-((3-(1-hydroxy-ethyl)phenyl)amino)pyridin-2-yl)-6-(thiophen-3-yl)piperidine-2,4-dione]  0.095 µM
8. CC(C)(O)CCOc1cccc(C2(c3ccsc3)CC(=O)C(Sc3ccccc3Cl)C(=O)N2)n1 (single isomer, unassigned) [Example 145, 3-(2-chlorophenyl)sulfanyl-6-[6-(3-hydroxy-3-methyl-butoxy)-2-pyridyl]-6-(3-thienyl)piperidine-2,4-dione]  0.088 µM
9. O=C1CC(c2ccsc2)(c2cccc(Cc3ccc(F)cc3F)n2)NC(=O)C1Sc1ccccc1Cl (centres unmarked) [Example 258, 3-((2-chlorophenyl)thio)-6-(6-(2,4-difluorobenzyl)pyridin-2-yl)-6-(thiophen-3-yl)piperidine-2,4-dione]  0.087 µM
10. O=C1CCC(COc2cccc(C3(c4ccsc4)CC(=O)C(Sc4ccccc4Cl)C(=O)N3)n2)O1 (single isomer, unassigned) [Example 193, 3-(2-chlorophenyl)sulfanyl-6-[6-[(5-oxotetrahydrofuran-2-yl)methoxy]-2-pyridyl]-6-(3-thienyl)piperidine-2,4-dione]  0.059 µM
11. O=C1CC(c2ccsc2)(c2cccc(NS(=O)(=O)N3CCC3)n2)NC(=O)C1Sc1ccccc1Cl (centres unmarked) [Example 286, N-(6-(5-((2-chlorophenyl)thio)-4,6-dioxo-2-(thiophen-3-yl)piperidin-2-yl)pyridin-2-yl)azetidine-1-sulfonamide]  0.057 µM
12. O=C1CC(c2ccsc2)(c2cccc(OCCC3CCCCC3)n2)NC(=O)C1Sc1ccccc1Cl (single isomer, unassigned) [Example 185, 3-(2-chlorophenyl)sulfanyl-6-[6-(2-cyclohexylethoxy)-2-pyridyl]-6-(3-thienyl) piperidine-2,4-dione]  0.055 µM
13. COc1cc(Cc2cccc(C3(c4ccsc4)CC(=O)C(Sc4ccccc4Cl)C(=O)N3)n2)ccc1F (single isomer, unassigned) [Example 284, 3-((2-chlorophenyl)thio)-6-(6-(4-fluoro-3-methoxy-benzyl)pyridin-2-yl)-6-(thiophen-3-yl)piperidine-2,4-dione]  0.041 µM
14. O=C1CC(c2ccsc2)(c2cccc(OC3CCCCC3)n2)NC(=O)C1Sc1ccccc1Cl (single isomer, unassigned) [Example 157, 3-(2-chlorophenyl)sulfanyl-6-[6-(cyclohexoxy)-2-pyridyl]-6-(3-thienyl) piperidine-2,4-dione]  0.03 µM
15. O=C1CC(c2ccsc2)(c2cccc(Oc3ccc(F)cc3F)n2)NC(=O)C1Sc1ccccc1Cl (centres unmarked) [Example 50, 3-(2-chlorophenyl) sulfanyl-6-[6-(2,4-difluorophenoxy)-2-pyridyl]-6-(3-thienyl)piperidine-2,4-dione]  0.022 µM
16. COCc1ccccc1Oc1cccc(C2(c3ccsc3)CC(=O)C(Sc3ccccc3Cl)C(=O)N2)n1 (centres unmarked) [Example 101]  0.018 µM
17. O=C1CC(c2ccsc2)(c2cccc(Oc3ccc4ncccc4c3)n2)NC(=O)C1Sc1ccccc1Cl (single isomer, unassigned) [Example 120, 3-(2-chlorophenyl)sulfanyl-6-[6-(6-quinolyloxy)-2-pyridyl]-6-(3-thienyl) piperidine-2,4-dione]  0.016 µM
18. O=C1CC(c2ccsc2)(c2cccc(Oc3ccc(Cl)cc3)n2)NC(=O)C1Sc1ccccc1Cl (centres unmarked) [Example 175, 6-[6-(4-chlorophenoxy)-2-pyridyl]-3-(2-chlorophenyl) sulfanyl-6-(3-thienyl) piperidine-2,4-dione]  0.013 µM
19. O=C1CC(c2ccsc2)(c2cccc(Oc3cccc4ncccc34)n2)NC(=O)C1Sc1ccccc1Cl (single isomer, unassigned) [Example 91, 5-((2-chlorophenyl)thio)-4-hydroxy-6′-(quinolin-5-yloxy)-2-(thiophen-3-yl)-2,3-dihydro-[2,2′-bipyridin]-6(1H)-one]  0.011 µM
20. O=C1CC(c2ccsc2)(c2cccc(OCCC3CCC3)n2)NC(=O)C1Sc1ccccc1Cl (single isomer, unassigned) [Example 141, 3-(2-chlorophenyl)sulfanyl-6-[6-(2-cyclobutyl-ethoxy)-2-pyridyl]-6-(3-thienyl)piperidine-2,4-dione]  0.003 µM
